Measurements published in patent US20060069120A1, “Novel piperidine derivaties as modulators of chemokine receptor ccr5” (priority 2002, published 2006).

Target: recombinant human CCR5 receptor (Homo sapiens, UniProt P51681)
Test: MIP-1α radioligand binding assay (scintillation proximity)
Conditions: displacement of 0.1 nM iodinated MIP-1α; membranes of Chinese hamster ovary cells expressing recombinant human CCR5; average if tested more than once
Protocol: The ability of compounds to inhibit the binding of MIP-1α was assessed by an in vitro radioligand binding assay. Membranes were prepared from Chinese hamster ovary cells which expressed the recombinant human CCR5 receptor. These membranes were incubated with 0.1 nM iodinated MIP-1α, scintillation proximity beads and various concentrations of the compounds of the invention in 96-well plates. The amount of iodinated MIP-1α bound to the receptor was determined by scintillation counting. Competition curves were obtained for compounds and the concentration of compound which displaced 50% of bound iodinated MIP-1α was calculated (IC50).
In Table IV the results are presented as Pic50 values. A Pic50 value is the negative log (to base 10) of the IC50 result, so an IC50 of 1 μM (that is 1×10^−6M) gives a Pic50 of 6. If a compound was tested more than once then the data below is an average of the probative tests results.

recombinant human CCR5 receptor, sequence (P51681 whole entry): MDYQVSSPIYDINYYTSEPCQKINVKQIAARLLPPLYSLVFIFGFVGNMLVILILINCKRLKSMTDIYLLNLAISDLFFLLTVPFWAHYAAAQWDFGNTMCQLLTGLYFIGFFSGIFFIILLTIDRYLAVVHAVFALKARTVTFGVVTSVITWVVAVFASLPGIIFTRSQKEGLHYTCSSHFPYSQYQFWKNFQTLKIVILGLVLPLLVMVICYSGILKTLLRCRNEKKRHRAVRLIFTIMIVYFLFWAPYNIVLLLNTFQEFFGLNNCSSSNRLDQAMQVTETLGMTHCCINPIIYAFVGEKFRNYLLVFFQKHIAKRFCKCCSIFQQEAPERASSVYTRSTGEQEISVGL

IC50 [nM] | SMILES
89.1 | CS(=O)(=O)c1ccc(CNC(=O)CCC2CCN(CCC(c3ccccc3)C3CCN(S(C)(=O)=O)CC3)CC2)cc1 (single isomer, unassigned) [Table V Compound 3]
0.871 | CS(=O)(=O)c1ccc(NC(=O)CC2CCN(CC[C@@H](c3ccccc3)c3ccc(S(C)(=O)=O)cc3)CC2)cc1 [Table IV Compound 1, (S) N-(4-methanesulphonylphenyl)-1-[3-phenyl-3-(4-methanesulphonylphenyl)-propyl]piperidin-4-yl acetamide]

Further lines, the compound ahead of its results:

SMILES | IC50 [nM]
CS(=O)(=O)c1ccc(NC(=O)CC2CCN(CCC(c3ccccc3)C3CCN(C(=O)c4ccc(Cl)cc4)CC3)CC2)cc1 (centres unmarked) [Table I Compound 5] | 1.32
CS(=O)(=O)c1ccc(NC(=O)CC2CCN(CCC(c3ccccc3)N3CCN(c4ccccc4)CC3)CC2)cc1 (centres unmarked) [Table I Compound 3] | 12
CS(=O)(=O)N1CCC(C(CCN2CCC(CC(=O)Nc3ccc(F)cc3)CC2)c2ccccc2)CC1 (centres unmarked) [Table I Compound 6] | 5.62
